Measurements reported in patent publication US7078552B2, “Combretastatin A-1 phosphate and combretastatin B-1 phosphate prodrugs” (Arizona Board of Regents, priority 2000, dated 2006).
pIC50: −log10 of the molar value. Values after ≈ are worked out from the molar mass of the structure shown. Where two headings read alike, the source gives them in different places.

What was measured:
[1] = system: P388 lymphocytic leukemia cell line; assay: Murine P388 lymphocytic leukemia in vitro cell growth inhibition; format: cell-based
BXPC-3 = assay: Human cancer cell line growth inhibition, Pancreas-a BXPC-3; format: cell-based; conditions: for GI50: Homo sapiens
OVCAR-3 = assay: Human cancer cell line growth inhibition, Ovarian OVCAR-3; format: cell-based; conditions: for GI50: Homo sapiens
SF-295 = assay: Human cancer cell line growth inhibition, CNS SF-295; format: cell-based; conditions: for GI50: Homo sapiens
NCl-H460 = assay: Human cancer cell line growth inhibition, Lung-NSC NCl-H460; format: cell-based; conditions: for GI50: Homo sapiens
KM20L2 = assay: Human cancer cell line growth inhibition, Colon KM20L2; format: cell-based; conditions: for GI50: Homo sapiens, KM-20L2
DU-I45 = assay: Human cancer cell line growth inhibition, Prostate DU-I45; format: cell-based; conditions: for GI50: Homo sapiens
[2] = 1 mL distilled water at 25° C., Table I
physchem = conditions: water
[3] = system: P388 and human tumor cell lines; assay: Cytotoxicity versus the P388 and human tumor cell lines, comparative statements
[4] = system: P388 lymphocytic leukemia cell line; conditions: literature (Pettit et al, 1987, 1989); cited from earlier work
[5] = system: tubulin (microtubule assembly); conditions: literature (Pettit et al, 1987, 1989); read-out: IC50 inhibiting microtubule assembly in vitro; cited from earlier work

COc1cc(/C=C\c2ccc(OC)c(OP(=O)([O-])[O-])c2OP(=O)([O-])[O-])cc(OC)c1OC.[Cs+].[Cs+].[Cs+].[Cs+] [Compound 11c, Cesium Combretastatin A-1 2′,3′-O-diphosphate]
Leukemia P388 ED50 ([1]; P388 cell line): 0.0365 µg/mL | Pancreas-a BXPC-3 GI50 (BXPC-3): 0.31 µg/mL | Ovarian OVCAR-3 GI50 (OVCAR-3): 0.024 µg/mL | CNS SF-295 GI50 (SF-295): 0.038 µg/mL | Lung-NSC NCl-H460 GI50 (NCl-H460): 0.040 µg/mL | Colon KM20L2 GI50 (KM20L2): 0.28 µg/mL | Prostate DU-I45 GI50 (DU-I45): 0.024 µg/mL

Magnesium Combretastatin A-1 2′,3′-O-diphosphate [Compound 11d]
Leukemia P388 ED50 ([1]; P388 cell line): 0.0245 µg/mL | Pancreas-a BXPC-3 GI50 (BXPC-3): 0.44 µg/mL | Ovarian OVCAR-3 GI50 (OVCAR-3): 0.031 µg/mL | CNS SF-295 GI50 (SF-295): 0.039 µg/mL | Lung-NSC NCl-H460 GI50 (NCl-H460): 0.039 µg/mL | Colon KM20L2 GI50 (KM20L2): 0.47 µg/mL | Prostate DU-I45 GI50 (DU-I45): 0.032 µg/mL

COc1cc(/C=C\c2ccc(OC)c(OP(=O)([O-])[O-])c2OP(=O)([O-])[O-])cc(OC)c1OC.[Zn+2].[Zn+2] [Compound 11g, Dizinc Combretastatin A-1 2′,3′-O-diphosphate]
Leukemia P388 ED50 ([1]; P388 cell line): 0.0394 µg/mL | Pancreas-a BXPC-3 GI50 (BXPC-3): 0.36 µg/mL | Ovarian OVCAR-3 GI50 (OVCAR-3): 0.027 µg/mL | CNS SF-295 GI50 (SF-295): 0.033 µg/mL | Lung-NSC NCl-H460 GI50 (NCl-H460): 0.032 µg/mL | Colon KM20L2 GI50 (KM20L2): 0.32 µg/mL | Prostate DU-I45 GI50 (DU-I45): 0.025 µg/mL

Papaverine Combretastatin A-1 2′,3′-O-diphosphate [Compound 11n]
Leukemia P388 ED50 ([1]; P388 cell line): 0.05 µg/mL | Pancreas-a BXPC-3 GI50 (BXPC-3): 0.38 µg/mL | Ovarian OVCAR-3 GI50 (OVCAR-3): 0.052 µg/mL | CNS SF-295 GI50 (SF-295): 0.063 µg/mL | Lung-NSC NCl-H460 GI50 (NCl-H460): 0.27 µg/mL | Colon KM20L2 GI50 (KM20L2): 0.33 µg/mL | Prostate DU-I45 GI50 (DU-I45): 0.054 µg/mL

COc1cc(/C=C\c2ccc(OC)c(OP(=O)([O-])[O-])c2OP(=O)([O-])[O-])cc(OC)c1OC.[K+].[K+].[K+].[K+] [Compound 11b, Potassium Combretastatin A-1 2′,3′-O-diphosphate]
Leukemia P388 ED50 ([1]; P388 cell line): 0.0170 µg/mL | Pancreas-a BXPC-3 GI50 (BXPC-3): 0.38 µg/mL | Ovarian OVCAR-3 GI50 (OVCAR-3): 0.023 µg/mL | CNS SF-295 GI50 (SF-295): 0.035 µg/mL | Lung-NSC NCl-H460 GI50 (NCl-H460): 0.036 µg/mL | Colon KM20L2 GI50 (KM20L2): 0.30 µg/mL | Prostate DU-I45 GI50 (DU-I45): 0.024 µg/mL | solubility ([2]; first part): >90 mg/mL | solubility ([2]; second part (column repeated)): >90 mg/mL

COc1cc(CCc2ccc(OC)c(OP(=O)(O)O)c2OP(=O)(O)O)cc(OC)c1OC [Compound 5, Sodium Combretastatin B-1 2′,3′-O-Diphosphate]
Leukemia P388 ED50 ([1]; P388 cell line): 0.335 µg/mL | GI50 (BXPC-3): > 10 µg/mL | GI50 (OVCAR-3): 2 µg/mL | GI50 (SF-295): 2.3 µg/mL | GI50 (NCl-H460): 3.3 µg/mL | GI50 (KM20L2): > 10 µg/mL | GI50 (DU-I45): 2.7 µg/mL | solubility (physchem; 25 °C): > 50 mg/mL | cytotoxicity / antineoplastic activity compared to prodrug 4 [3]: reduced antineoplastic activity

Nicotinamide Combretastatin A-1 2′,3′-O-diphosphate [Compound 11j]
Leukemia P388 ED50 ([1]; P388 cell line): 0.005 µg/mL | Pancreas-a BXPC-3 GI50 (BXPC-3): 0.42 µg/mL | Ovarian OVCAR-3 GI50 (OVCAR-3): 0.054 µg/mL | CNS SF-295 GI50 (SF-295): 0.053 µg/mL | Lung-NSC NCl-H460 GI50 (NCl-H460): 0.15 µg/mL | Colon KM20L2 GI50 (KM20L2): 0.53 µg/mL | Prostate DU-I45 GI50 (DU-I45): 0.046 µg/mL

COc1cc(/C=C\c2ccc(OC)c(OP(=O)([O-])[O-])c2OP(=O)([O-])[O-])cc(OC)c1OC.[Mn+2].[Mn+2] [Compound 11f, Manganese Combretastatin A-1 2′, 3′-O-diphosphate]
Leukemia P388 ED50 ([1]; P388 cell line): 0.715 µg/mL | Pancreas-a BXPC-3 GI50 (BXPC-3): 4.7 µg/mL | Ovarian OVCAR-3 GI50 (OVCAR-3): 0.044 µg/mL | CNS SF-295 GI50 (SF-295): 0.28 µg/mL | Lung-NSC NCl-H460 GI50 (NCl-H460): 0.19 µg/mL | Colon KM20L2 GI50 (KM20L2): 6.1 µg/mL | Prostate DU-I45 GI50 (DU-I45): 2.4 µg/mL

COc1ccc(/C=C\c2cc(OC)c(OC)c(OC)c2)cc1O [Compound 3a, combretastatin A-4, reference compound]
Leukemia P388 ED50 ([1]; P388 cell line): 0.0003 µg/mL | GI50 (BXPC-3): 0.39 µg/mL (≈ 1230 nM) | GI50 (OVCAR-3): < 0.001 µg/mL | GI50 (SF-295): < 0.001 µg/mL | GI50 (NCl-H460): 0.0006 µg/mL (≈ 1.9 nM) | GI50 (KM20L2): 0.061 µg/mL (≈ 193 nM) | GI50 (DU-I45): 0.0008 µg/mL (≈ 2.53 nM) | ED50 against murine P388 lymphocytic leukemia in vitro system [4]: ~0.0009 µg/mL (≈ 2.84 nM) | pIC50 [5]: […]

COc1ccc(CCc2cc(OC)c(OC)c(OC)c2)c(O)c1O [Compound 2, combretastatin B-1]
Leukemia P388 ED50 [1]: 1.7 µg/mL | ED50 against murine P388 lymphocytic leukemia in vitro system [4]: 1.7 µg/mL (≈ 5080 nM) | pIC50 [5]: 5.52

COc1cc(/C=C\c2ccc(OC)c(OP(=O)(O)O)c2OP(=O)(O)O)cc(OC)c1OC [Compound 4, Sodium Combretastatin A-1 2′,3′-O-diphosphate]
Leukemia P388 ED50 ([1]; P388 cell line): <0.0100 µg/mL | GI50 (BXPC-3): 1.5 µg/mL | GI50 (OVCAR-3): 0.024 µg/mL | GI50 (SF-295): 0.036 µg/mL | GI50 (NCl-H460): 0.038 µg/mL | GI50 (KM20L2): 0.53 µg/mL | GI50 (DU-I45): 0.034 µg/mL | solubility ([2]; second part (column repeated)): 120 mg/mL | solubility (physchem; 25 °C): 120 mg/mL | solubility (physchem): 120 mg/mL

Quinidine Combretastatin A-1 2′,3′-O-diphosphate [Compound 11l]
Leukemia P388 ED50 ([1]; P388 cell line): 0.004 µg/mL | Pancreas-a BXPC-3 GI50 (BXPC-3): 0.55 µg/mL | Ovarian OVCAR-3 GI50 (OVCAR-3): 0.043 µg/mL | CNS SF-295 GI50 (SF-295): 0.056 µg/mL | Lung-NSC NCl-H460 GI50 (NCl-H460): 0.37 µg/mL | Colon KM20L2 GI50 (KM20L2): 0.84 µg/mL | Prostate DU-I45 GI50 (DU-I45): 0.10 µg/mL

Calcium Combretastatin A-1 2′,3′-O-diphosphate [Compound 11e]
Leukemia P388 ED50 ([1]; P388 cell line): 0.0102 µg/mL | Pancreas-a BXPC-3 GI50 (BXPC-3): 0.28 µg/mL | Ovarian OVCAR-3 GI50 (OVCAR-3): 0.024 µg/mL | CNS SF-295 GI50 (SF-295): 0.041 µg/mL | Lung-NSC NCl-H460 GI50 (NCl-H460): 0.037 µg/mL | Colon KM20L2 GI50 (KM20L2): 0.34 µg/mL | Prostate DU-I45 GI50 (DU-I45): 0.024 µg/mL

Quinine Combretastatin A-1 2′,3′-O-dephosphate [Compound 11k]
Leukemia P388 ED50 ([1]; P388 cell line): 0.004 µg/mL | Pancreas-a BXPC-3 GI50 (BXPC-3): 0.47 µg/mL | Ovarian OVCAR-3 GI50 (OVCAR-3): 0.054 µg/mL | CNS SF-295 GI50 (SF-295): 0.044 µg/mL | Lung-NSC NCl-H460 GI50 (NCl-H460): 0.34 µg/mL | Colon KM20L2 GI50 (KM20L2): 0.40 µg/mL | Prostate DU-I45 GI50 (DU-I45): 0.050 µg/mL

Piperazine Combretastatin in A-1 2′,3′-O-diphosphate [Compound 11i]
Leukemia P388 ED50 ([1]; P388 cell line): 0.002 µg/mL | Pancreas-a BXPC-3 GI50 (BXPC-3): 0.35 µg/mL | Ovarian OVCAR-3 GI50 (OVCAR-3): 0.046 µg/mL | CNS SF-295 GI50 (SF-295): 0.039 µg/mL | Lung-NSC NCl-H460 GI50 (NCl-H460): 0.037 µg/mL | Colon KM20L2 GI50 (KM20L2): 0.20 µg/mL | Prostate DU-I45 GI50 (DU-I45): 0.036 µg/mL

COc1cc(/C=C\c2ccc(OC)c(OP(=O)([O-])[O-])c2OP(=O)([O-])[O-])cc(OC)c1OC.[Li+].[Li+].[Li+].[Li+] [Compound 11a, Lithium Combretastatin A-1 2′,3′-O-diphosphate]
Leukemia P388 ED50 ([1]; P388 cell line): <0.0100 µg/mL | Pancreas-a BXPC-3 GI50 (BXPC-3): 0.33 µg/mL | Ovarian OVCAR-3 GI50 (OVCAR-3): 0.028 µg/mL | CNS SF-295 GI50 (SF-295): 0.042 µg/mL | Lung-NSC NCl-H460 GI50 (NCl-H460): 0.040 µg/mL | Colon KM20L2 GI50 (KM20L2): 0.37 µg/mL | Prostate DU-I45 GI50 (DU-I45): 0.031 µg/mL

Morpholine Combretastatin A-1 2′,3′-O-diphosphate [Compound 11h]
Leukemia P388 ED50 ([1]; P388 cell line): 0.002 µg/mL | Pancreas-a BXPC-3 GI50 (BXPC-3): 0.35 µg/mL | Ovarian OVCAR-3 GI50 (OVCAR-3): 0.043 µg/mL | CNS SF-295 GI50 (SF-295): 0.042 µg/mL | Lung-NSC NCl-H460 GI50 (NCl-H460): 0.046 µg/mL | Colon KM20L2 GI50 (KM20L2): 0.26 µg/mL | Prostate DU-I45 GI50 (DU-I45): 0.039 µg/mL
